Test results: patent US20090117123A1, “IMMU[…] HPV E6 AND E7 PROTEINS” (National Health Research Institutes, priority 2007, published 2009)

Key:
[1] = system: splenocytes from HLA-A11/K^b transgenic mice; assay: IFN-γ ELISPOT of peptide-stimulated splenocytes from DNA plasmid-immunized mice; type: cell-based, mouse; conditions: splenocytes of mice immunized i.m. with plasmid pE3/19K/HPV18E6E7, stimulated with the peptide; FIG. 7A
Method: (§1) A 96-well plate, having nitrocellulose membrane inserted in each well, was coated with […] anti-IFN-γ antibody (clone MAB1-D1K, 10 μg/ml in 1×PBS, from Mabtech, Macka, Sweden) and was incubated at 4° C. for 24 hours. The plate was washed four times with PBS, and then incubated with […] per well RPMI medium containing 10% fetal bovine serum (FBS) for 1-3 hours. Next, splenocytes were suspended in RPMI containing 10% FBS and 1×10^5 or 5×10^5 splennocytes (200 μl) were added to each well with or without A11VVY. The ELISPOT assay was performed in triplicate wells for each experimental condition. The plate was incubated in an incubator supplied with 5% CO2 at 37° C. for 2 hours. After being washed for 2-3 times, the plate was incubated with avidin-peroxidase complex reagent for one hour at room temperature and then washed three times with 0.05% (w/v) Tween 20 in PBS and three times with PBS. 100 μl aminoethylcarbazole staining solution were then added to each well to develop stained spots. After 4-6 minutes, the plate was washed with running tap water to stop the reaction of developing the spots, which were counted by a computational image analysis.
Plasmid pE3/19K/HPV18E6E7 was constructed following the conventional recombinant technology. This plasmid contains the E3/19K leader sequence and a nucleotide sequence encoding a fusion protein composed of the H-2K^b-restricted CTL epitope SII (derived from ovalbumin) and HPV18E6E7 polypeptide, which includes epitopes VVY, SIP, and ATL.
(§2) Seven to ten days after the second immunization, the mice were sacrificed and their splenocytes collected.
The splenocytes werestimulated with peptide VVY, SII, SIP, ATL, or a control peptide and the levels of IFN-γ secreted thereby were determined with the Enzyme-linked immunospot (ELISPOT) assay described in Example 1 above.

[2] = system: ^51Cr-labeled T2/HLA-A11 cells; assay: Chromium release assay with splenocytes from peptide-immunized mice; type: in vivo, mouse; conditions: HLA-A11 transgenic mice immunized twice with the peptide; FIG. 6B
Method: (§3) Next, the CTL effect induced by peptide VVY was examined as follows. HLA-A11 transgenic mice were immunized twice with peptide VVY, SIP, or ATL, all of which were derived from HPV 18, following the procedures described above in this Example. Splenocytes (2×10^6/ml) isolated from the immunized mice were cultured with 10 μg/ml of either VVY or A11-SCC and 10 U/ml rIL-2 for at 37+ C. for 5 days. A standard chromium release assay was performed to determine cytolytic activity. In brief, T2/HLA-A11 cells were labeled with 100 μCi of ^51Cr (PerkinElmer, Waltham, Mass., USA) for 1.5 hrs at 37° C. and washed afterwards three times with cold RPMI. The cultured splenocytes, used as effector cells, were mixed with 5×10^3 the ^51Cr-labeled T2/HLA-A11 cells at various ratios in triplicate wells in a U-bottom 96-well plate (Nunc, Rochester, N.Y., USA). After 4-5 hrs incubation, supernatants from each well were collected and the radioactivity contained therein was measured using a γ-counter (PARKARD, Ramsey, Mich., USA). The specific lysis rate was determined following the formula: Specific lysis rate (%)=(Samplecpm−Spontaneous releasecpm)/(Maximum releasecpm−Spontaneous releasecpm)%.

[3] = system: HLA A24 heavy chain and β2-microglobulin; assay: MHC-peptide complex formation assay (ELISA), HLA A24; type: binding
Method: The HLA A24 heavy chain and β2-microglobulin were expressed and purified following the method described above. These proteins were incubated with synthetic peptides containing potential CTL-epitopes identified by the computational programs mentioned in Example 1. The formation of HLA A24-β2-peptide complexes was determined by the ELISA assay also described in Example 1 above.

[4] = system: T cells of HLA-A24 transgenic mice; assay: IFN-γ secretion of splenocytes from peptide-immunized HLA-A24 transgenic mice; type: in vivo, mouse; conditions: HLA-A24 transgenic mice immunized with peptide; FIG. 5B
Method: FIG. 5B is a diagram showing IFN-γ secretion of splenocytes obtained from HLA-A24 transgenic mice immunized with peptide […] (A24 CYE, SEQ ID NO:5) or a control peptide.
as §1

[5] = system: ^51Cr-labeled T2/HLA-A11 cells; assay: Chromium-release assay, peptide-specific CTL effects after DNA plasmid immunization; type: cell-based, mouse; conditions: mice immunized with plasmid pE3/19K/HPV18E6E7; FIG. 7B
Method: as §3, §2
Next, peptide-specific CTL effects were examined by the chromium-release assay described in Example 4 above.

[6] = system: CD8^+ T cells of C57BL/6-HLA-A11 transgenic mice; assay: HLA-A11-peptide tetramer staining of CD8+ T cells from peptide-immunized mice; type: in vivo, mouse; conditions: HLA-A11 transgenic mice immunized s.c. twice; splenocytes cultured 5 days with peptide and rIL-2; FIG. 6A
Method: C57BL/6-HLA-A11 transgenic mice were immunized s.c. twice with peptide VVY (SEQ ID NO:1) or control peptide SSC (SEQ ID NO:12) together with a T helper cell epitope […] (SEQ ID NO:17), and incomplete adjuvant ISA-51. Seven days after the second immunization, splenocytes were harvested from the immunized mice, cultivated in vitro in the presence of peptide VVY or SSC (10 μg/ml) and rIL-2 (10 U/ml) for five days. The cells were then double stained with HLA-A11-peptide tetramer VVY-tet-PE or SCC-tet-PE and a FITC-conjugated anti-CD8 antibody to detect CD8^+ T cells that bind to either VVY or SSC.
The tetramers were prepared as follows. Purified HLA-A11 heavy chains and β2-microglobulins were refolded in the presence of VVY or SSC in a refolding buffer containing 100 mM Tris-HCl (pH 8), 400 mM L-arginine, 2 mM EDTA, 5 mM reduced glutathione, 0.5 mM oxidized glutathione for 48 hrs at 4° C. […]
The tetramers thus prepared were incubated with the peptide-challenged T cells in a FACS staining buffer for 20 min at room temperature and a FITC conjugated anti-CD8 antibody was then added to the incubation system and kept on ice for 20 min. The stained cells were analyzed by flow cytometry (FACScalibur BD Bioscience, Calif., USA) in the presence of 1 μg/ml of propidium iodide (Sigma, Mo., USA) to exclude dead cells.

[7] = system: splenocytes from C57BL/6-HLA-A11 transgenic mouse; assay: IFN-γ ELISPOT of splenocytes from peptide-immunized HLA-A11 transgenic mouse; type: in vivo; conditions: HLA-A11 transgenic mouse immunized s.c. with peptide, ISA-51 and T helper epitope; FIG. 5A
Method: C57BL/6-HLA-A11 transgenic mouse, derived from the Animal Technology Institute in Taiwan, was used in this study. 50 μg synthetic peptides having the amino acid sequence of […] (A11VVY; SEQ ID NO:1) were formulated with incomplete adjuvant ISA-51 in the presence of a peptide […] (SEQ ID NO:17), which contains a T helper cell epitope derived from hepatitis B virus. The composition thus formed was injected subcutaneously into the HLA-A11 transgenic mouse two times every two weeks. Seven days after the final injection, splenotyes from the immunized mouse were isolated and cultured in a medium containing A11VVY. The level of IFN-γ secreted to the medium was determined by Enzyme-linked immunospot (ELISPOT) as described below.
A 96-well plate, having nitrocellulose membrane inserted in each well, was coated with […] anti-IFN-γ antibody (clone MAB1-D1K, 10 μg/ml in 1×PBS, from Mabtech, Macka, Sweden) and was incubated at 4° C. for 24 hours. The plate was washed four times with PBS, and then incubated with […] per well RPMI medium containing 10% fetal bovine serum (FBS) for 1-3 hours. […] After 4-6 minutes, the plate was washed with running tap water to stop the reaction of developing the spots, which were counted by a computational image analysis.

[8] = target: HLA A11 heavy chain (His-Tag fusion) with β2-microglobulin (human); assay: MHC-peptide complex formation assay, ELISA; relative to positive and negative control O.D.

## ATLQDIVLH (listed as Human papillomavirus) [peptide derived from HPV 18]
[1]
  induction of IFN-γ secretion: not
[2]
  CTL effects (specific lysis): not

## CYEQLGDSS (listed as Human papillomavirus) [24-32 of HPV 52 E7]
[3]
  HLA A24 restriction (HLA A24-β2-peptide complex formation): HLA A24 restricted epitopes
[4]
  IFN-γ secretion by peptide-specific T cells: incuded A24CYE-specific T cells to secrete IFN-γ

## RAHYNIVTF (listed as Human papillomavirus) [control peptide]
[1]
  induction of IFN-γ secretion: not
[5]
  peptide-specific CTL effects: not

## SIINFEKL (listed as Mus musculus)
[1]
  induction of IFN-γ secretion: induced IFN-γ secretion
[5]
  peptide-specific CTL effects: not

## SIPHAACHK (listed as Human papillomavirus) [peptide derived from HPV 18]
[1]
  induction of IFN-γ secretion: not
[2]
  CTL effects (specific lysis): not

## SSCSSCPLSK (listed as Human herpesvirus) [A11-SCC, positive control A11-restricted peptide derived from EBV LMP2 protein]
[6]
  induction of VVY-specific CD8^+ T cells (tetramer staining): did not show this effect

## VDLLCHEQL (listed as Human papillomavirus) [23-31 of HPV 18 E7]
[3]
  HLA A24 restriction (HLA A24-β2-peptide complex formation): HLA A24 restricted epitopes

## VVYRDSIPH (listed as Human papillomavirus) [54-62 of HPV 18 E6]
[1]
  induction of IFN-γ secretion: induced IFN-γ secretion
[2]
  CTL effects (specific lysis): induced CTL effects
[6]
  induction of VVY-specific CD8^+ T cells (tetramer staining): induced VVY-specific CD8^+ T cells
[5]
  peptide-specific CTL effects: induced CTL effects
[7]
  IFN-γ secreting splenocytes: large amount

## WLSLLVPFV [A2-restricted peptide, used as control peptide for immunization]
[7]
  IFN-γ secreting splenocytes: little

## … (54-62 of HPV 18 E6) (peptide)
[8]
  relative binding %: 30%

## … (64-72 of HPV 52 E6) (peptide)
[8]
  relative binding %: 30%

## … (94-102 of HPV 58 E6) (peptide)
[8]
  relative binding %: 30%
